From patent publication US10525106B2, “Angiopoietin-based interventions for treating cerebral malaria” (Regeneron Pharmaceuticals, Inc., priority 2013, dated 2020)

How the values were obtained:
[1] = tested on: Plasmodium berghei ANKA (PbA)-induced experimental cerebral malaria; assay: Survival of mice infected with PbA (Kaplan Meier, log rank test); type: in vivo; details: C57Bl/6 mice, 10 mg/kg artesunate Day 5 sc, alone (Example 4)
From the text: (§1) Cryopreserved Plasmodium berghei ANKA (PbA; MR4, Manassas, Va.) was passaged through naïve C57Bl/6 mice. For the experiment, infection was initiated in C57Bl/6 and BALB/c mice by intraperitoneal (ip) injection of 1×10^6 freshly-isolated parasitized erythrocytes (PE) obtained from donor passage mice. Parasitemia was monitored by thin-blood smear stained with modified Geimsa stain (Protocol Hema3 Stain Set, Sigma, Oakville, ON) by counting at least 1500 erythrocytes. The infected mice were monitored for survival, neurological impairment, vascular leakage, parasite burden, and levels of angiogenic factors and markers of endothelial activation.
Post-infection survival of mice was plotted as Kaplan Meier curves using a log rank test for comparison. Quantitative assessment of ECM-associated neurological impairment (impaired coordination and motor performance) was performed daily using the 10 parameter Rapid Murine Coma and Behavioral Score (RMCBS), as previously described by Carroll R W, et al. 2010 in PLoS ONE 5: e13124. […] Total scores for each mouse were calculated and provided as a percentage of the total possible score. […]
Statistical analysis was performed using GraphPad Prism version 4.00 (San Diego, Calif.). Post-infection survival of mice was plotted as Kaplan Meier curves and assessed using log-rank test. […]

[2] = tested on: Plasmodium berghei ANKA (PbA); assay: Parasitemia by thin-blood smear; type: in vivo; details: C57Bl/6 mice, 10 mg/kg artesunate Day 5 sc (Example 4)
From the text: as §1

SMILES: C[C@H]1[C@H](OC(=O)CCC(=O)O)O[C@@H]2O[C@@]3(C)CC[C@H]4[C@H](C)CC[C@@H]1[C@@]24OO3 [artesunate, reference compound]
- survival by Day 8 post infection [1]: less than 60%
- treated mice that died of ECM [1]: 41.7%
- parasitemia (parasite burden diminished to pre-ECM levels) [2]: < 2%
